Results from patent US20260297080A1, “BICYCLIC COMPOUNDS AS CDK INHIBITORS” (BeOne Medicines I GmbH, priority 2022, published 2026).
Values belong to the compound of their own block, whether it stands above or below them.

Columns and labels:
[1] = target: CDK2/Cyclin E1 (Homo sapiens, UniProt P24941); test: CDK2/Cyclin E1 Biochemical Assay (TR-FRET), 0.060 mM ATP; conditions: 0.15 μM Rb (Ser780)-biotin substrate, pH7.0, 60 min preincubation, 120 min reaction, room temperature
Method in brief: (§1)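 Percent inhibition was derived from the 665 nm/620 nm TR-FRET ratio after a 120-minute room-temperature reaction on 0.15 μM Rb (Ser780)-biotin, preceded by 60-minute enzyme–compound preincubation. IC50 came from four-parameter logistic fitting.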

[2] = target: CDK1/Cyclin B1 (Homo sapiens, UniProt P06493); test: CDK1/Cyclin B1 Biochemical Assay (TR-FRET), 0.015 mM ATP; conditions: 0.15 μM Rb (Ser780)-biotin substrate, pH7.0, 60 min preincubation, 120 min reaction, room temperature
Method in brief: as §1

Sequence of CDK1/Cyclin B1 (P06493 whole entry): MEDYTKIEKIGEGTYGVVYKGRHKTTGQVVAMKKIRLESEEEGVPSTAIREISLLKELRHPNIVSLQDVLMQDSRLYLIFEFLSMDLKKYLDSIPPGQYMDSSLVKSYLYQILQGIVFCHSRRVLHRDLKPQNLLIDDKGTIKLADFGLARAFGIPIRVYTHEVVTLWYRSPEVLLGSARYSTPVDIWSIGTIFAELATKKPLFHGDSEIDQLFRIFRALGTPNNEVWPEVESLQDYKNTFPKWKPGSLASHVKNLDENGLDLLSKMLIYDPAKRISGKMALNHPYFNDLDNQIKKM
Sequence of CDK1/Cyclin B1 (P14635 whole entry partner): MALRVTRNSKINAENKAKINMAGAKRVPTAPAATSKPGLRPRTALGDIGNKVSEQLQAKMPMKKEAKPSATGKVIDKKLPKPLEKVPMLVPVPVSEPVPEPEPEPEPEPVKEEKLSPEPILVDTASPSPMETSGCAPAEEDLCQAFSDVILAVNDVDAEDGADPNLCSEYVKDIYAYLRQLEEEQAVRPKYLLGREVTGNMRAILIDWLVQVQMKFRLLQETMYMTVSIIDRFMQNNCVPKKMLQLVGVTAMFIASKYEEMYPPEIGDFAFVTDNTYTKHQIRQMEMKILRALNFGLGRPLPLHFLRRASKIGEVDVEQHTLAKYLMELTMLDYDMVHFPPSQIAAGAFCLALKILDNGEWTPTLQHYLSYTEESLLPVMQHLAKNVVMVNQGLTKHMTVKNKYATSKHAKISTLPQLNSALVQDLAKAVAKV

SMILES: CC(C)NC(=O)O[C@H]1CC[C@@H](c2cc(Nc3ccc4c(c3F)CN(CC(C)(C)O)S4(=O)=O)n[nH]2)C1 (relative stereo) [Example 76, cis-3-(3-((4-fluoro-2-(2-hydroxy-2-methylpropyl)-1,1-dioxido-2,3-dihydrobenzo[d]isothiazol-5-yl)amino)-1H-pyrazol-5-yl)cyclopentyl isopropylcarbamate]
IC50 [1]: 10 nM
IC50 [2]: 416 nM

SMILES: CC(C)NC(=O)O[C@H]1CC[C@@H](c2cc(Nc3ccc4c(c3)CS(=O)(=O)N4CCO)n[nH]2)C1 (single isomer, unassigned) [Example 219b, cis-3-(3-((1-(2-hydroxyethyl)-2,2-dioxido-1,3-dihydrobenzo[c]isothiazol-5-yl)amino)-1H-pyrazol-5-yl)cyclopentyl isopropylcarbamate]
IC50 [1]: 3.6 nM
IC50 [2]: 28 nM

SMILES: CC(C)NC(=O)O[C@H]1CO[C@@H](c2cc(Nc3ccc4c(c3F)CNS4(=O)=O)n[nH]2)C1 (relative stereo) [Example 378, 5-(3-((4-fluoro-1,1-dioxido-2,3-dihydrobenzo[d]isothiazol-5-yl)amino)-1H-pyrazol-5-yl)tetrahydrofuran-3-yl isopropylcarbamate]
IC50 [1]: 9.3 nM
IC50 [2]: 496 nM

SMILES: [2H]C([2H])([2H])N1c2c(F)cc(Nc3cc([C@@H]4CC[C@H](OC(=O)NC(C)C)C4)[nH]n3)cc2CS1(=O)=O (single isomer, unassigned) [Example 289a, cis-3-(3-((7-fluoro-1-(methyl-d3)-2,2-dioxido-1,3-dihydrobenzo[c]isothiazol-5-yl)amino)-1H-pyrazol-5-yl)cyclopentyl isopropylcarbamate]
IC50 [1]: 10 nM
IC50 [2]: 196 nM

SMILES: COCC(C)(C)NC(=O)O[C@H]1CC[C@@H](c2cc(Nc3ccc4c(c3F)CN(C)S4(=O)=O)n[nH]2)C1 (relative stereo) [Example 379, cis-3-(3-((4-fluoro-2-methyl-1,1-dioxido-2,3-dihydrobenzo[d]isothiazol-5-yl)amino)-1H-pyrazol-5-yl)cyclopentyl(1-methoxy-2-methylpropan-2-yl)carbamate]
IC50 [1]: 4.5 nM
IC50 [2]: 230 nM

SMILES: CC(C)NC(=O)O[C@H]1CC[C@@H](c2cc(Nc3ccc4c(c3F)CN(C3CN(S(C)(=O)=O)C3)S4(=O)=O)n[nH]2)C1 (relative stereo) [Example 89, cis-3-(3-((4-fluoro-2-(1-(methylsulfonyl)azetidin-3-yl)-1,1-dioxido-2,3-dihydrobenzo[d]isothiazol-5-yl)amino)-1H-pyrazol-5-yl)cyclopentyl isopropylcarbamate]
IC50 [1]: 34 nM
IC50 [2]: 879 nM

SMILES: CC(C)NC(=O)O[C@H]1CC[C@@H](c2cc(Nc3ccc4c(c3F)CN(C3COC3)S4(=O)=O)n[nH]2)C1 (single isomer, unassigned) [Example 133b, cis-3-(3-((4-fluoro-2-(oxetan-3-yl)-1,1-dioxido-2,3-dihydrobenzo[d]isothiazol-5-yl)amino)-1H-pyrazol-5-yl)cyclopentyl isopropylcarbamate]
IC50 [1]: 8.6 nM
IC50 [2]: 456 nM

SMILES: Cc1c(Nc2cc([C@@H]3CC[C@H](OC(=O)NC(C)C)C3)[nH]n2)ccc2c1CN(CCO)S2(=O)=O (relative stereo) [Example 37, cis-3-(3-((2-(2-hydroxyethyl)-4-methyl-1,1-dioxido-2,3-dihydrobenzo[d]isothiazol-5-yl)amino)-1H-pyrazol-5-yl)cyclopentyl isopropylcarbamate]
IC50 [1]: 7.2 nM
IC50 [2]: 313 nM

SMILES: CC(C)NC(=O)N[C@H]1CC[C@@H](c2cc(Nc3ccc4c(c3)CNS4(=O)=O)n[nH]2)C1 (relative stereo) [Example 19, cis-1-(3-(3-((1,1-dioxido-2,3-dihydrobenzo[d]isothiazol-5-yl)amino)-1H-pyrazol-5-yl)cyclopentyl)-3-isopropylurea]
IC50 [1]: 305 nM
IC50 [2]: 1070 nM

SMILES: COCCN1Cc2c(ccc(Nc3cc([C@@H]4CC[C@H](OC(=O)NC(C)C)C4)[nH]n3)c2C)S1(=O)=O (relative stereo) [Example 36, cis-3-(3-((2-(2-methoxyethyl)-4-methyl-1,1-dioxido-2,3-dihydrobenzo[d]isothiazol-5-yl)amino)-1H-pyrazol-5-yl)cyclopentyl isopropylcarbamate]
IC50 [1]: 18 nM
IC50 [2]: 329 nM

SMILES: O=C(NC1CCC1)O[C@H]1CC[C@@H](c2cc(Nc3ccc4c(c3F)CS(=O)(=O)N4)n[nH]2)C1 (single isomer, unassigned) [Example 399b]
IC50 [1]: 3.8 nM
IC50 [2]: 90 nM

SMILES: CC(C)NC(=O)O[C@H]1CC[C@@H](c2cc(Nc3ccc4c(c3F)C(C)NS4(=O)=O)n[nH]2)C1 (single isomer, unassigned) [Example 51b, cis-3-(3-((4-fluoro-3-methyl-1,1-dioxido-2,3-dihydrobenzo[d]isothiazol-5-yl)amino)-1H-pyrazol-5-yl)cyclopentyl isopropylcarbamate]
IC50 [1]: 3.3 nM
IC50 [2]: 82 nM

Compounds with a lower IC50 [1], results first:

IC50 [1]: 2.6 nM
IC50 [2]: 219 nM
SMILES: CC[C@H](C)NC(=O)O[C@H]1CC[C@@H](c2cc(Nc3ccc4c(c3F)CN(C)S4(=O)=O)n[nH]2)C1 (single isomer, unassigned) [Example 123b]

IC50 [1]: 2.2 nM
IC50 [2]: 206 nM
SMILES: [2H]C([2H])([2H])N1Cc2c(ccc(Nc3cc([C@@H]4CC[C@H](OC(=O)NC5(C)CC5)C4)[nH]n3)c2F)S1(=O)=O (single isomer, unassigned) [Example 132a, cis-3-(3-((4-fluoro-2-(methyl-d3)-1,1-dioxido-2,3-dihydrobenzo[d]isothiazol-5-yl)amino)-1H-pyrazol-5-yl)cyclopentyl(1-methylcyclopropyl)carbamate]

IC50 [1]: 1.8 nM
IC50 [2]: 49 nM
SMILES: CC(C)NC(=O)O[C@H]1CC[C@@H](c2cc(Nc3ccc4c(c3F)CS(=O)(=O)N4CCO)n[nH]2)C1 (single isomer, unassigned) [Example 271b, cis-3-(3-((4-fluoro-1-(2-hydroxyethyl)-2,2-dioxido-1,3-dihydrobenzo[c]isothiazol-5-yl)amino)-1H-pyrazol-5-yl)cyclopentyl isopropylcarbamate]

IC50 [1]: 2.1 nM
IC50 [2]: 225 nM
SMILES: CC(C)NC(=O)O[C@H]1CC[C@@H](c2cc(Nc3ccc4c(c3F)CN(CC3CCN(C)C3=O)S4(=O)=O)n[nH]2)C1 (relative stereo) [Example 111, cis-3-(3-((4-fluoro-2-((1-methyl-2-oxopyrrolidin-3-yl)methyl)-1,1-dioxido-2,3-dihydrobenzo[d]isothiazol-5-yl)amino)-1H-pyrazol-5-yl)cyclopentyl isopropylcarbamate]

IC50 [1]: 2.1 nM
IC50 [2]: 30 nM
SMILES: CC(C)NC(=O)O[C@H]1CC[C@@H](c2cc(Nc3ccc4c(c3)CCS(=O)(=O)N4C)n[nH]2)C1 (relative stereo) [Example 250, cis-3-(3-((1-methyl-2,2-dioxido-3,4-dihydro-1H-benzo[c][1,2]thiazin-6-yl)amino)-1H-pyrazol-5-yl)cyclopentyl isopropylcarbamate]

IC50 [1]: 2.9 nM
IC50 [2]: 95 nM
SMILES: CC(C)NC(=O)O[C@H]1CC[C@@H](c2cc(Nc3ccc4c(c3)C(C)NS4(=O)=O)n[nH]2)C1 (single isomer, unassigned) [Example 321a, cis-3-(3-((3-methyl-1,1-dioxido-2,3-dihydrobenzo[d]isothiazol-5-yl)amino)-1H-pyrazol-5-yl)cyclopentyl isopropylcarbamate]
